In US20090170846A1, “INHIBITORS OF THE HIV INTEGRASE ENZYME” (Pfizer Inc, priority 2005, published 2009):
Like-named read-outs stand apart in the source and are kept apart here.

Assays:
[1] = target: T1, Full-length wild type HIV-1 integrase (SF1) (Human immunodeficiency virus type 1 group M subtype B, UniProt P04585); test: Integrase strand-transfer scintillation proximity assay; assay type: biochemical; settings: integrase strand-transfer SPA; read-out: IC50
T1 construct: made in house; host or cells: E. coli BL21 (DE3)
Excerpt: Integrase Strand-Transfer Scintillation Proximity Assay
Oligonucleotides: Oligonucleotide #1-5′-(biotin)[…]-3′ (SEQ ID NO: 1) and oligonucleotide #2-5′-[…]-3′ (SEQ ID NO: 2), were synthesized by TriLink BioTechnologies, Inc. (San Diego, Calif.). The annealed product represents preprocessed viral ds-DNA derived from the LTR U5 sequence of the viral genome. A ds-DNA control to test for non-specific interactions was made using a 3′ di-deoxy derivative of oligonucleotide #1 annealed to oligonucleotide #2. The CA overhang at the 5′ end of the non-biotinylated strand of the ds-DNA was created artificially by using a complimentary DNA oligonucleotide shortened by 2 base pairs. This configuration eliminates the requisite 3′ processing step of the integrase enzyme prior to the strand-transfer mechanism.
Host ds-DNA was prepared as an unlabeled and [^3H]-thymidine labeled product from annealed oligonucleotide #3-5-[…]-3′ (SEQ ID NO: 3), and oligonucleotide #4-1-5′-[…]-3′ (SEQ ID NO: 4), both synthesized by TriLink BioTechnologies, Inc. (San Diego, Calif.). The annealed product had overhanging 3′ ends of poly(dA). Host DNA was custom radiolabeled by PerkinElmer Life Sciences Inc. (Boston, Mass.) using an enzymatic method with a 12/1 ratio of [methyl-^3H]dTTP/cold ds-DNA to yield 5′-blunt end ds-DNA with a specific activity of >900 Ci/mmol. The radiolabeled product was purified using a NENSORB cartridge and stored in stabilized aqueous solution (PerkinElmer). The final radiolabeled product had six [^3H]-thymidine nucleotides at both 5′ ends of the host ds-DNA.
Reagents: Streptavidin-coated polyvinyltoluene (PVT) SPA beads were purchased from Amersham Biosciences (Piscataway, N.J.). Cesium chloride was purchased from Shelton Scientific, Inc. (Shelton, Conn.). White, polystyrene, flat-bottom, non-binding surface, 96-well plates were purchased from Corning. All other buffer components were purchased from Sigma (St. Louis, Mo.) unless otherwise indicated.
Enzyme Construction Full-length wild type HIV-1 integrase (SF1) sequence (amino acids 1-289) was constructed in a pET24a vector (Novagen, Madison, Wis.). The construct was confirmed through DNA sequencing.
Enzyme Purification Full length wild-type HIV Integrase was expressed in E. coli BL21 (DE3) cells and induced with 1 mM isopropyl-1 thio-β-D-galactopyranoside (IPTG) when cells reached an optical density between 0.8-1.0 at 600 nm. Cells were lysed by microfluidation in 50 mM HEPES pH 7.0, 75 mM NaCl, 5 mM DTT, 1 mM 4-(2-Aminoethyl)benzenesulfonylfluoride HCl (AEBSF). Lysate was then centrifuged 20 minutes at 11 k rpm in GSA rotor in Sorvall RC-5B at 4° C. Supernant was discarded and pellet resuspended in 50 mM HEPES pH 7.0, 750 mM NaCl, 5 mM DTT, 1 mM AEBSF and homogenized in a 40 mL Dounce homogenizer for 20 minutes on ice. Homogenate was then centrifuged 20 minutes at 11 k rpm in SS34 rotor in Sorvall RC-5B at 4° C. Supernant was discarded and pellet resuspended in 50 mM HEPES pH 7.0, 750 mM NaCl, 25 mM CHAPS, 5 mM DTT, 1 mM AEBSF. Preparation was then centrifuged 20 minutes at 11 k rpm in SS34 rotor in Sorvall RC-5B at 4° C.
Supernant was then diluted 1:1 with 50 mM HEPES pH 7.0, 25 mM CHAPS, 1 mM DTT, 1 mM AEBSF and loaded onto a Q-Sepharose column pre-equilibrated with 50 mM HEPES, pH 7.0, 375 mM NaCl, 25 mM CHAPS, 1 mM DTT, 1 mM AEBSF. The flow through peak was collected and NaCl diluted to 0.1 M with 50 mM HEPES pH 7.0, 25 mM CHAPS, 1 mM DTT, 0.5 mM AEBSF and loaded onto a SP-Sepharose column pre-equilibrated with 50 mM HEPES pH 7.0, 100 mM NaCl, 25 mM CHAPS, 1 mM DTT, 0.5 mM AEBSF. After washing the column with the equilibration buffer, a 100 to 400 mM NaCl gradient was run. The eluted integrase was concentrated and run on a S-300 gel diffusion column using 50 mM HEPES pH 7.0, 500 mM NaCl, 25 mM CHAPS, 1 mM DTT, 0.5 mM AEBSF. The peak from this column was concentrated to 0.76 mg/mL and stored at −70° C. and later used for strand transfer assays. […]

[2] = tested on: RF strain of HIV-1 in CEM-SS cells; test: HIV-1 cell protection assay (XTT dye reduction); assay type: cell-based
Experimental: HIV-1 Cell Protection Assay
The antiviral activities of potential modulator compounds (test compounds) were determined in HIV-1 cell protection assays using the RF strain of HIV-1, CEM-SS cells, and the XTT dye reduction method (Weislow, O, S. et al., J. Natl. Cancer Inst 81: 577-586 (1989)). Subject cells were infected with HIV-1 RF virus at an moi of to affect about a 90% kill (for example, an moi in the range of from about 0.025 to about 0.819) or mock infected with medium only and added at 2×10^4 cells per well, with the addition of approximately 200 μL of medium, into 96 well plates containing half-log dilutions of test compounds. Six days later, 50 μl of XTT solution (1 mg/ml XTT tetrazolium and 20 nM phenazine methosulfate) were added to the wells and the plates were reincubated for four hours. Viability, as determined by the amount of XTT formazan produced, was quantified spectrophotometrically by absorbance at 450 nm.
Data from CPE assays were expressed as the percent of formazan produced in compound-treated cells compared to formazan produced in wells of uninfected, compound-free cells. The fifty percent effective concentration (EC50) was calculated as the concentration of compound that affected an increase in the percentage of formazan production in infected, compound-treated cells to 50% of that produced by uninfected, compound-free cells. The 50% cytotoxicity concentration (CC50) was calculated as the concentration of compound that decreased the percentage of formazan produced in uninfected, compound-treated cells to 50% of that produced in uninfected, compound-free cells. The therapeutic index was calculated by dividing the cytotoxicity (CC50) by the antiviral activity (EC50).

[3] = Human immunodeficiency virus 1, 144 h, HIV-1 RF, CEM-SS cells, XTT, six days, read-out: EC50
[4] = Human immunodeficiency virus 1, CEM-SS, 144 h

Compound | IC50 [1] | EC50 [2, 3] | EC50 [2, 4]
O=C(NO)c1cc2c(NS(=O)(=O)c3ccc(Cl)s3)cn(Cc3ccc(F)cc3)c2cn1 [Example 21, 3-{[(5-chloro-2-thienyl)sulfonyl]amino}-1-(4-fluorobenzyl)-N-hydroxy-1H-pyrrolo[2,3-c]pyridine-5-carboxamide] | 102 nM | 71 nM | –
COc1ncccc1NS(=O)(=O)c1cn(Cc2ccc(F)cc2)c2cnc(C(=O)N(C)O)cc12 [Example 53, 1-(4-fluorobenzyl)-N-hydroxy-3-{((2-methoxypyridin-3-yl)amino]sulfonyl}-N-methyl-1H-pyrrolo[2,3-c]pyridine-5-carboxamide] | – | 140 nM | –
CCN1CCCC1CNC(=O)c1cn(Cc2ccc(F)cc2)c2cnc(C(=O)NO)cc12 (stereo not shown) [Example 31, N~3~-[(1-ethylpyrrolidin-2-yl)methyl]-1-(4-fluorobenzyl)-N~5~- hydroxy-1H-pryyolo[2,3-c]pyridine-3,5-dicarboxamide] | 141 nM | – | 200 nM
CONC(=O)c1cc2c(S(=O)(=O)Nc3cccnc3OC)cn(Cc3ccc(F)cc3)c2cn1 [Example 52, 1-(4-fluorobenzyl)-N-methoxy-3-{[(2-methoxypyridin-3-yl)amino]sulfonyl}-1H-pyrrolo[2,3-c]pyridine-5-carboxamide] | – | 52 nM | –
CONC(=O)c1cc2c(C(=O)N3CCCC(CO)C3)cn(Cc3ccc(F)cc3)c2cn1 (stereo not shown) [Example 13, 1-(4-fluorobenzyi)-3-{[3-(hydroxymethyl)piperidin-1-yl]carbonyl}-N-methoxy-1H-pyrrolo[2,3-c]pyridine-5-carboxamide] | 374 nM | – | 66 nM
O=C1CN(S(=O)(=O)c2cn(Cc3ccc(F)cc3F)c3cnc(C(=O)NO)cc23)CCN1 [Example 38, 1-(2,4-difluorobenzyl)-N-hydroxy-3-[(3-oxopiperazin-1-yl)sulfonyl]-1H-pyrrolo[2,3-c]pyridine-5-carboxamide] | 265 nM | 8000 nM | –
CONC(=O)c1cc2c(S(=O)(=O)NCCN3CCOCC3)cn(Cc3ccc(F)cc3F)c2cn1 [Example 40, 1-(2,4-difluorobenzyl)-N-methoxy-3-{[(2-morpholin-4-ylethyl)amino]sulfonyl}-1H-pyrrolo[2,3-c]pyridine-5-carboxamide] | 760 nM | 52 nM | –
CONC(=O)c1cc2c(S(=O)(=O)N3CCNC(=O)C3)cn(Cc3ccc(F)cc3F)c2cn1 [Example 39, 1-(2,4-difluorobenzyl)-N-methoxy-3-[(3-oxopiperazin-1-yl)sulfonyl]-1H-pyrrolo[2,3-c]pyridine-5-carboxamide] | 299 nM | 210 nM | –
O=C(NO)c1cc2c(C(=O)NCCCN3CCCC3=O)cn(Cc3ccc(F)cc3)c2cn1 [Example 29, 1-(4-fluorobenzyl)-N~5~- hydroxy-N~3~-[3-(2-oxopyrrolidin-1-yl)propyl]-1H-pyrrolo[2,3-c]pyridine-3,5-dicarboxamide] | 70 nM | – | 130 nM
O=C(NO)c1cc2c(C(=O)NCCN3CCOCC3)cn(Cc3ccc(F)cc3)c2cn1 [Example 27, 1-(4-fluorobenzyl)-N~5~- hydroxy-N~3~-(2-morpholin-4-ylethyl)-1H-pyrrolo[2,3-c]pyridine-3,5-dicarboxamide] | 76 nM | – | 38 nM
CN(C)S(=O)(=O)c1cn(Cc2ccc(F)cc2)c2cnc(C(=O)NO)cc12 [Example 34] | 136 nM | 47 nM | –
CONC(=O)c1cc2c(S(=O)(=O)N(C)CC3COCCO3)cn(Cc3ccc(F)cc3)c2cn1 (stereo not shown) [Example 54, 3-{[(1,4-dioxan-2-ylmethyl)(methyl)amino]sulfonyl}-1-(4-fluorobenzyl)-N-methoxy-1H-pyrrolo[2,3-c]pyridine-5-carboxamide] | – | 48 nM | –
CN(O)C(=O)c1cc2c(S(=O)(=O)NCCCO)cn(Cc3ccc(F)cc3)c2cn1 [Example 50, 1-(4-fluorobenzyl)-N-hydroxy-3-{[(3-hydroxypropyl)amino]sulfonyl}-N-methyl-1H-pyrrolo[2,3-c]pyridine-5-carboxamide] | – | 460 nM | –
CONC(=O)c1cc2c(S(=O)(=O)NCCCO)cn(Cc3ccc(F)cc3)c2cn1 [Example 51, 1-(4-fluorobenzyl)-3-{[(3-hydroxypropyl)amino]sulfonyl}-N-methoxy-1H-pyrrolo[2,3-c]pyridine-5-carboxamide] | – | 110 nM | –
CN(O)C(=O)c1cc2c(S(=O)(=O)N(C)CC3COCCO3)cn(Cc3ccc(F)cc3)c2cn1 (stereo not shown) [Example 56, 3-{[(1,4-dioxan-2-ylmethyl)(methyl)amino]sulfonyl}-1-(4-fluorobenzyl)-N-hydroxy-N-methyl-1H-pyrrolo[2,3-c]pyridine-5-carboxamide] | – | 400 nM | –
CONC(=O)c1cc2c(S(=O)(=O)N3CCOCC3)cn(Cc3ccc(F)cc3)c2cn1 [Example 55, 1-(4-fluorobenzyl)-N-methoxy-3-(morpholin-4-ylsulfonyl)-1H-pyrrolo[2,3-c]pyridine-5-carboxamide] | – | 25 nM | –
CCN(CC)S(=O)(=O)c1cn(Cc2ccc(F)cc2)c2cnc(C(=O)NOC)cc12 [Example 49, 3-[(diethylamino)sulfonyl]-1-(4-fluorobenzyl)-N-methoxy-1H-pyrrolo[2,3-c]pyridine-5-carboxamide] | – | 17 nM | –
CN(O)C(=O)c1cc2c(S(=O)(=O)N3CCOCC3)cn(Cc3ccc(F)cc3)c2cn1 [Example 57, 1-(4-fluorobenzyl)-N-hydroxy-N-methyl-3-(morpholin-4-ylsulfonyl)-1H-pyrrolo[2,3-c]pyridine-5-carboxamide] | – | 480 nM | –
CC(=O)Nc1cn(Cc2ccc(F)cc2)c2cnc(C(=O)N(C)O)cc12 [Example 2, 3-(acetylamino)-1-(4-fluorobenzyl)-N-hydroxy-N-methyl-1H-pyrrolo[2,3-c]pyridine-5-carboxamide] | – | 20 nM | –
